Reference: ChEMBL document CHEMBL1125962, “A new class of leukotriene biosynthesis inhibitors: The development of ((4-(4-chlorophenyl)-1-(4-(2-quinolinylmethoxy)phenyl)butyl)thio)acetic acid, L-674,636” (Bioorg Med Chem Lett, 1991)

Tests used:
[1] = Inhibition of leukotriene synthesis was assessed from inhibitory activity against human PMN.; format: functional
Rattus norvegicus [2] = organism: Rattus norvegicus; assay: The effective dose was measured in antigen-induced dyspnea in inbred hyperreactive rats.; format: functional
[3] = Percentage blockade of ascaris-induced bronchoconstriction by the compound was determined at a dose of 1 mg/kg in conscious squirrel monkey; format: functional
Rattus norvegicus [4] = organism: Rattus norvegicus; assay: The effective dose was measured by using rat pleurisy assay.; format: functional
[5] = Compound was tested for bioavailability in rats; format: ADME, organism-based; conditions: rat, in vivo
[6] = Compound was tested for bioavailability in squirrel monkey; format: ADME, organism-based, Saimiri sciureus; conditions: in vivo

Row | IC50 [1] [nM] | SMILES | other results
1 | 30 | OC(CCCc1ccccc1)c1ccc(OCc2ccc3ccccc3n2)cc1 (stereo unspecified) | –
2 | 1800 | CCCCCC(O)c1cccc(OCc2ccc3ccccc3n2)c1 (stereo unspecified) [REV-5901] | –
3 | 80 | O=C(O)CO/N=C(\CCCc1ccccc1)c1ccc(OCc2ccc3ccccc3n2)cc1 | –
4 | 7 | O=C(O)CSC(CCCc1ccc(Cl)cc1)c1ccc(OCc2ccc3ccccc3n2)cc1 (stereo unspecified) | ED50 (Rattus norvegicus [2]): 0.035 mg/kg; Blockade [3]: 80%; ED50 (Rattus norvegicus [4]): 1.6 mg/kg; bioavailability [5]: 100%; bioavailability [6]: 93%
5 | 90 | CCCCCC(O)c1ccc(OCc2ccc3ccccc3n2)cc1 (stereo unspecified) | –
6 | 3 | O=C(O)CSC(CCCc1ccccc1)c1ccc(OCc2ccc3ccccc3n2)cc1 (stereo unspecified) [AZD-4769] | –
